The target of the experiment is T1, TMEM94 (Homo sapiens, UniProt Q12767).
T1 construct: full-length, purified in detergent micelles; TMD extends to residue 1356; N-glycosylated
T1 sequence (Q12767 1-1356): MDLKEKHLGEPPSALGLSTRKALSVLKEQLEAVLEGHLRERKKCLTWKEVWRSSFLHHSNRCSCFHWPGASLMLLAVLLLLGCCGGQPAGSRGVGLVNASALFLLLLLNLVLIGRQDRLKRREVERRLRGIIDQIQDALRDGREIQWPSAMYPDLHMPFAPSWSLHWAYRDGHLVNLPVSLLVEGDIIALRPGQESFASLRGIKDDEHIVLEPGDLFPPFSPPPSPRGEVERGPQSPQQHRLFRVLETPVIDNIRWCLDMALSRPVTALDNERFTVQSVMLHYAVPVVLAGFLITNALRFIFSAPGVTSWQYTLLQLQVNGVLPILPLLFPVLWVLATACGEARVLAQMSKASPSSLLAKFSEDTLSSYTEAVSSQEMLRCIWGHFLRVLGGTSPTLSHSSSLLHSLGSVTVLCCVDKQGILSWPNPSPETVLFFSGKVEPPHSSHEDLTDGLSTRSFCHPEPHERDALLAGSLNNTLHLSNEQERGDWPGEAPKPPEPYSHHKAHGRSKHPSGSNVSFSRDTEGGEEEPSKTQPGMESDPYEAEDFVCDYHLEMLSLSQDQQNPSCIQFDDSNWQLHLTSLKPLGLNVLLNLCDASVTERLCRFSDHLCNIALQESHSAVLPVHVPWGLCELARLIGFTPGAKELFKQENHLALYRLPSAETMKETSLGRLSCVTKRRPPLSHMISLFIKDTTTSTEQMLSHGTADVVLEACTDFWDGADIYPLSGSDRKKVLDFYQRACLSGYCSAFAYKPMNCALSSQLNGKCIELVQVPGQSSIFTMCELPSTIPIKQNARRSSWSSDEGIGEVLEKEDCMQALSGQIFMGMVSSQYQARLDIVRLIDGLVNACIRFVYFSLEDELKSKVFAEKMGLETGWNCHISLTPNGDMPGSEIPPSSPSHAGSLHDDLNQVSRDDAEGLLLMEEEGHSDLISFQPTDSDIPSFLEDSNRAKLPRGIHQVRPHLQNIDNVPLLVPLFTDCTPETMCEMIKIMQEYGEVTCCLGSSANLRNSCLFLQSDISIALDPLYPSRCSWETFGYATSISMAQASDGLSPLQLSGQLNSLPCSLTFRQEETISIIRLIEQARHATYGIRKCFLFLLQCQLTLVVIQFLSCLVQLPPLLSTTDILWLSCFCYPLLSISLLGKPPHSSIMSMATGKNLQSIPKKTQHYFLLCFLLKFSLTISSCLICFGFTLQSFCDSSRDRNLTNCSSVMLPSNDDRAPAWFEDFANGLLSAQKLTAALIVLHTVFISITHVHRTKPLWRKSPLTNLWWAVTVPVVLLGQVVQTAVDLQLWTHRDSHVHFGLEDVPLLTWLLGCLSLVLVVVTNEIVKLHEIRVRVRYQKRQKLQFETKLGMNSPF
Briefly: microscale thermophoresis (MST). The class given is binding.

`Nc1ncnc2c1ncn2[C@@H]1O[C@H](COP(=O)(O)OP(=O)(O)CP(=O)(O)O)[C@@H](O)[C@H]1O` [AMPPCP] showed a Kd of 5.48 ± 1.41 µM.

(Values after paper PMC12134183, “Structural analysis of full-length human transmembrane protein 94 argues against its classification as a P-type Mg^2+ ATPase” (Cell Discovery, 2025).)
